Laboratory results reported in patent publication US8440830B2, “Tetrahydro-fused pyridines as histone deacetylase inhibitors” (4SC AG, priority 2007, dated 2013).
Where a name gives a salt, the structure may show the parent alone.

Tested on: A549 NSCLC cells
Test: Cellular cytotoxicity assay (Alamar Blue), A549
Type: cell-based
Details: Homo sapiens, 72 h, upper end given as ≧100, read-out: IC50 (μM), cytotoxicity towards A549 NSCLC cells
Method: The anti-proliferative activity of the histone deacetylase inhibitory compounds as described herein, is evaluated using the following cell lines: HeLa and HeLa-KB (cervical carcinoma), H460 (non small cell lung cancer), A549 (non-small cell lung cancer), MCF7 (breast carcinoma), MCF10A (normal, non tumorigenic breast epithelial), MDA-MB468 (breast carcinoma), MDA-MB435 (breast carcinoma), MDA-MB231 (breast carcinoma), SKBR-3 (breast carcinoma), SKOV-3 (ovarial carcinoma), A-2780 (ovarial carcinoma), RKO (colon carcinoma), HCT-15 (colon carcinoma), HCT-116 (colon carcinoma), PC3 (prostate carcinoma), BPH1 (benign prostate hyperplasia), AsPC1 (pancreatic carcinoma), Ca127 (tongue carcinoma), A-431 (vulva carcinoma), Hec1A (endometrial carcinoma), Saos-2 (osteosarcoma), U87MG (glioblastoma), WM266-4 (melanoma), K562 (chronic myeloid leukemia), EOL1 (acute hypereosinophilic myeloid leukemia), CCRF-CEM and CCRF-CEM VCR1000 (acute lymphoblastic leukemia sensitive and resistant towards Vincristine). For quantification of cellular proliferation/living cells the Alamar Blue (Resazurin) cell viability assay is applied (O'Brien et al. Eur J Biochem 267, 5421-5426, 2000). In this assay Resazurin is reduced to the fluorescent resorufine by cellular dehydrogenase activity, correlating with viable, proliferating cells. The examples are dissolved as 20 mM solutions in dimethylsulfoxide (DMSO) and subsequently diluted in semi-logarithmic steps. Cell lines are seeded at respective density into 96 well flat bottom plates in a volume of 200 μl per well. 24 h after seeding 1 μl each of the compound dilutions are added into each well of the 96 well plate. Each compound dilution is tested as quadruplicates. Wells containing untreated control cells are filled with 200 μl DMEM medium containing 0.5% v:v DMSO. The cells are then incubated with the compounds for 72 h at 37° C. in a humidified atmosphere containing 5% carbon dioxide. To determine the viability of the cells, 20 μl of a Resazurin solution (Sigma; 90 mg/l) are added. After 4 h incubation at 37° C. the fluorescence is measured at an extinction of λ=544 nm and an emission of λ=590 nm. For the calculation of the cell viability the emission value from untreated cells is set as 100% viability and the emission rates of treated cells are set in relation to the values of untreated cells. Viabilities are expressed as % values. The corresponding IC50 values of the compounds for cytotoxic activity are determined from the concentration-effect curves by means of non-linear regression.

SMILES | IC50 [µM]
COc1ccc(N)c(NC(=O)c2nc3c(s2)CN(C(=O)C(=O)Nc2ccc(OC)c(OC)c2)CC3)c1 [Example 82, N-(2-amino-5-methoxyphenyl)-5-{[(3,4-dimethoxyphenyl)amino](oxo)acetyl}-4,5,6,7-tetrahydro[1,3]thiazolo[5,4-c]pyridine-2-carboxamide] | ≥ 0.2
CCCCNC(=O)C(=O)N1CCc2nc(C(=O)Nc3cc(OC)ccc3N)sc2C1 [Example 83, N-(2-amino-5-methoxyphenyl)-5-[(butylamino)(oxo)acetyl]-4,5,6,7-tetrahydro[1,3]thiazolo[5,4-c]pyridine-2-carboxamide] | ≥ 0.2
CCCCNC(=O)C(=O)N1CCc2nc(C(=O)Nc3cc(C(C)C)ccc3N)sc2C1 [Example 84, N-(2-amino-5-isopropylphenyl)-5-[(butylamino)(oxo)acetyl]-4,5,6,7-tetrahydro[1,3]thiazolo[5,4-c]pyridine-2-carboxamide] | ≥ 0.2
Nc1ccccc1NC(=O)c1nc2c(s1)CN(C(=O)C(=O)NCc1ccccc1)CC2 [Example 85, N-(2-aminophenyl)-5-[(benzylamino)(oxo)acetyl]-4,5,6,7-tetrahydro[1,3]thiazolo[5,4-c]pyridine-2-carboxamide] | ≥ 0.2
Nc1ccccc1NC(=O)c1nc2c(s1)CN(C(=O)c1ccc(-c3ccccc3)cc1)CC2 [Example 88, N-(2-aminophenyl)-5-(biphenyl-4-ylcarbonyl)-4,5,6,7-tetrahydro[1,3]thiazolo[5,4-c]pyridine-2-carboxamide] | ≥ 0.2
Cc1ccc(C(=O)N2CCc3nc(C(=O)Nc4ccccc4N)sc3C2)cc1 [Example 89, N-(2-aminophenyl)-5-(4-methylbenzoyl)-4,5,6,7-tetrahydro[1,3]thiazolo[5,4-c]pyridine-2-carboxamide] | ≥ 0.2
COC(=O)c1ccc(C(=O)N2CCc3nc(C(=O)Nc4ccccc4N)sc3C2)cc1 [Example 90, Methyl 4-({2-[(2-aminophenyl)carbamoyl]-6,7-dihydro[1,3]thiazolo[5,4-c]pyridin-5(4H)-yl}carbonyl)benzoate] | ≥ 0.2
CN(C)c1ccc(C(=O)N2CCc3nc(C(=O)Nc4ccccc4N)sc3C2)cc1 [Example 91, N-(2-aminophenyl)-5-[4-(dimethylamino)benzoyl]-4,5,6,7-tetrahydro[1,3]thiazolo[5,4-c]pyridine-2-carboxamide] | ≥ 0.2
COc1ccc(C(=O)N2CCc3nc(C(=O)Nc4ccccc4N)sc3C2)cc1 [Example 93, N-(2-aminophenyl)-5-(4-methoxybenzoyl)-4,5,6,7-tetrahydro[1,3]thiazolo[5,4-c]pyridine-2-carboxamide] | ≥ 0.2
Nc1ccccc1NC(=O)c1nc2c(s1)CN(C(=O)c1cnc3ccccc3c1)CC2 [Example 94, N-(2-aminophenyl)-5-(quinolin-3-ylcarbonyl)-4,5,6,7-tetrahydro[1,3]thiazolo[5,4-c]pyridine-2-carboxamide] | ≥ 0.2
Nc1ccccc1NC(=O)c1nc2c(s1)CN(C(=O)c1ccc3ccccc3c1)CC2 [Example 95, N-(2-aminophenyl)-5-(2-naphthoyl)-4,5,6,7-tetrahydro[1,3]thiazolo[5,4-c]-pyridine-2-carboxamide] | ≥ 0.2
CN(C)c1cccc(C(=O)N2CCc3nc(C(=O)Nc4ccccc4N)sc3C2)c1 [Example 97, N-(2-aminophenyl)-5-[3-(dimethylamino)benzoyl]-4,5,6,7-tetrahydro[1,3]thiazolo[5,4-c]pyridine-2-carboxamide] | ≥ 0.2
Nc1ccccc1NC(=O)c1nc2c(s1)CN(C(=S)Nc1ccccc1)CC2 [Example 98, N-(2-aminophenyl)-5-(anilinocarbonothioyl)-4,5,6,7-tetrahydro[1,3]thiazolo[5,4-c]pyridine-2-carboxamide] | ≥ 0.2
CN(C)c1ccc(NC(=S)N2CCc3nc(C(=O)Nc4ccccc4N)sc3C2)cc1 [Example 99, N-(2-aminophenyl)-5-({[4-(dimethylamino)phenyl]amino}carbonothioyl)-4,5,6,7-tetrahydro[1,3]thiazolo[5,4-c]pyridine-2-carboxamide] | ≥ 0.2
Nc1ccccc1NC(=O)c1nc2c(s1)CN(C(=S)NC1CCNCC1)CC2 [Example 100, N-(2-aminophenyl)-5-[(piperidin-4-ylamino)carbonothioyl]-4,5,6,7-tetrahydro[1,3]thiazolo[5,4-c]pyridine-2-carboxamide] | ≥ 0.2
Nc1ccccc1NC(=O)c1nc2c(s1)CN(C(=S)NC1CCC(c3cccnc3)CC1)CC2 (centres unmarked) [Example 101, N-(2-aminophenyl)-5-{[(4-pyridin-3-ylcyclohexyl)amino]carbonothioyl}-4,5,6,7-tetrahydro[1,3]thiazolo[5,4-c]pyridine-2-carboxamide] | ≥ 0.2
COc1ccc(N)c(NC(=O)c2nc3c(s2)CN(C(=S)Nc2ccccc2)CC3)c1 [Example 102, N-(2-amino-5-methoxyphenyl)-5-(anilinocarbonothioyl)-4,5,6,7-tetrahydro[1,3]thiazolo[5,4-c]pyridine-2-carboxamide] | ≥ 0.2
Nc1ccccc1NC(=O)c1nc2c(s1)CN(C(=S)Nc1cccnc1)CC2 [Example 103, N-(2-aminophenyl)-5-[(pyridin-3-ylamino)carbonothioyl]-4,5,6,7-tetrahydro[1,3]thiazolo[5,4-c]pyridine-2-carboxamide] | ≥ 0.2
Nc1ccccc1NC(=O)c1nc2c(s1)CN(C(=S)Nc1cccc3cnccc13)CC2 [Example 104, N-(2-aminophenyl)-5-[(isoquinolin-5-ylamino)carbonothioyl]-4,5,6,7-tetrahydro[1,3]thiazolo[5,4-c]pyridine-2-carboxamide] | ≥ 0.2
CCCCNC(=S)N1CCc2nc(C(=O)Nc3ccccc3N)sc2C1 [Example 105] | ≥ 0.2
COc1ccc(NC(=S)N2CCc3nc(C(=O)Nc4cc(OC)ccc4N)sc3C2)cc1 [Example 106, N-(2-amino-5-methoxyphenyl)-5-{[(4-methoxyphenyl)amino]carbonothioyl}-4,5,6,7-tetrahydro[1,3]thiazolo[5,4-c]pyridine-2-carboxamide] | ≥ 0.2
COc1ccc(N)c(NC(=O)c2nc3c(s2)CN(C(=S)Nc2cccnc2)CC3)c1 [Example 107, N-(2-amino-5-methoxyphenyl)-5-[(pyridin-3-ylamino)carbonothioyl]-4,5,6,7-tetrahydro[1,3]thiazolo[5,4-c]pyridine-2-carboxamide] | ≥ 0.2
CC(C)c1ccc(N)c(NC(=O)c2nc3c(s2)CN(C(=S)Nc2cccnc2)CC3)c1 [Example 108, N-(2-amino-5-isopropylphenyl)-5-[(pyridin-3-ylamino)carbonothioyl]-4,5,6,7-tetrahydro[1,3]thiazolo[5,4-c]pyridine-2-carboxamide] | ≥ 0.2
CC(C)c1ccc(N)c(NC(=O)c2nc3c(s2)CN(C(=S)Nc2ccccc2)CC3)c1 [Example 109, N-(2-amino-5-isopropylphenyl)-5-(anilinocarbonothioyl)-4,5,6,7-tetrahydro[1,3]thiazolo[5,4-c]pyridine-2-carboxamide] | ≥ 0.2
COc1ccc(NC(=S)N2CCc3nc(C(=O)Nc4cc(C(C)C)ccc4N)sc3C2)cc1 [Example 110, N-(2-amino-5-isopropylphenyl)-5-{[(4-methoxyphenyl)amino]carbonothioyl}-4,5,6,7-tetrahydro[1,3]thiazolo[5,4-c]pyridine-2-carboxamide] | ≥ 0.2
COc1ccc(NC(=N)N2CCc3nc(C(=O)Nc4ccccc4N)sc3C2)cc1 [Example 111, N-(2-aminophenyl)-5-{imino[(4-methoxyphenyl)amino]methyl}-4,5,6,7-tetrahydro[1,3]thiazolo[5,4-c]pyridine-2-carboxamide] | ≥ 0.2
CN=C(Nc1ccccc1)N1CCc2nc(C(=O)Nc3ccccc3N)sc2C1 [Example 114, N-(2-aminophenyl)-5-[anilino(methylimino)methyl]-4,5,6,7-tetrahydro[1,3]thiazolo[5,4-c]pyridine-2-carboxamide. (Dihydrochloride)] | ≥ 0.2
CN=C(Nc1ccc(OC)cc1)N1CCc2nc(C(=O)Nc3cc(OC)ccc3N)sc2C1 [Example 115, N-(2-amino-5-methoxyphenyl)-5-[[(4-methoxyphenyl)amino](methylimino)methyl]-4,5,6,7-tetrahydro[1,3]thiazolo[5,4-c]pyridine-2-carboxamide] | ≥ 0.2
Cc1ccccc1NC(=NC#N)N1CCc2nc(C(=O)Nc3ccccc3N)sc2C1 [Example 119, N-(2-aminophenyl)-5-{(cyanoimino)[(2-methylphenyl)amino]methyl}-4,5,6,7-tetrahydro[1,3]thiazolo[5,4-c]pyridine-2-carboxamide] | ≥ 0.2
